Data reported in patent US20210361680A1, “INOSITOL-BASED IMMUNOTHERAPIES” (NormOxys, Inc., priority 2018, published 2021).
Entries after “also recorded” stand apart in the source; their conditions may differ.

What was measured:
[1] = tested on: PD-1; assay: Flow cytometry of PD-1 expressing CD45+ cells in 4T1 mammary carcinoma; format: in vivo, mouse
Experimental: (§1) 4T1murine mammary carcinoma (10^4 cells as spheroid plug in Matrigel) cells were injected in the mammary fat pad of BALBc/by mice.
(§2) ITPP was injected intraperitoneally (1.5 g/kg: in saline) twice a week over 3 weeks. It was started on day7 and repeated on day 8 post tumor inoculation (day 0). The following serial treatments were applied on days 15 and 16, 21 and 22. Tumors were extracted and weighted at the indicated times.
(§3) Tumor samples were immediately transferred in to PBS on ice. Biopsies were cut into small pieces and filtered through cell strainer after being dissociated by collagenase/dispase (Gibco). The samples were depleted of erythrocytes by red blood lysis buffer (eBiosciences).
(§4) Single cell suspensions were stained with mAbs for 1 h at 4° C. Acquisition was performed by one to four color flow cytometry using FACS LSR (Becton Dickinson). Dead cells were excluded on scatter profile. Data were acquired using CellQuest software (Becton Dickinson) on at least 100,000 events. Data were expressed as dot plot or histogram when comparison of fluorescence intensity is needed.
(§5) The following directly conjugated rat anti-mouse mAbs were used for the FACS staining: CD45-PerCP, CD11b-APC, CCR4-PE, CCR5-PE, CCR7-PE, CCR1O-PE and CXCR4-PE were from BD Biosciences. CD49b-APC was from Biolegend. […]

[2] = tested on: CD45+CD4+CCR4+ Th2 cells; assay: Flow cytometry of Th2 cells in B16F10 Luc melanoma; format: in vivo, mouse
Experimental: (§6) Murine B16F10 cells were implanted in C57BL6 or on Rj:NMRI-nu nude mice leg subcutaneously as we described previously by injecting a spheroid plug of 10^5 cells in 100 μl Matrigel (BD Biosciences).
as §2, §3, §4, §5

[3] = tested on: immune cells (CD45+); assay: Flow cytometry of CD45+ immune cells in B16F10Luc tumors; format: in vivo, mouse; settings: ITPP-treated versus control mice
Experimental: as §6, §2, §3, §4, §5

[4] = tested on: M1 (CD45+CD11c+CD206−) macrophages; assay: Flow cytometry of M1 macrophages in B16F10 Luc melanoma; format: in vivo, mouse
Experimental: as §6, §2, §3, §4, §5

[5] = tested on: CD47; assay: Flow cytometry of CD47 expression in B16F10 tumors; format: in vivo, mouse; settings: tumor B16F10 melanoma cells
Experimental: as §6, §2, §3, §4, §5

[6] = tested on: CCR5; assay: Flow cytometry of CCR5 expression in the tumor site; format: in vivo, mouse
Experimental: as §6, §2, §3
(§7) In specified experiments, tumors were depleted from CD45+ and/or CD31+ cells by magnetic separation (Easy Sep magnet, StemCell Technologies Inc).
as §4, with “needed. […]” for “needed.”

[7] = tested on: NK cells; assay: Immunocytochemical labelling of NK cell infiltrate in B16F10 Luc tumors; format: in vivo, mouse; settings: B16F10 Luc tumors extracted on day 23; non-treated: NK cells stuck in the vessels
Experimental: as §6, §2
Tumor tissues were embedded in tissue freezing medium (Tissue-Tek; Sakura) and snap frozen in liquid nitrogen. Tumor cryosections were fixed and stained with mouse anti-CD31 (rat monoclonal IgG2a; eBiosciences), anti-CD49b (Rat IgM; BD Pharmingen) or anti-Firefly Luciferase (Rabbit IgG; Abcam) before tetramethyl rhodamine isothiocyanate or fluorescein isothiocyanate secondary antibodies were added. Nuclei were stained with bisbenzimide H 33258 (Sigma-Aldrich).

[8] = tested on: CD31+ endothelial cells; assay: Flow cytometry of CD31+ endothelial cells in B16F10Luc melanoma; format: in vivo, mouse; settings: treated versus non-treated tumors
Experimental: as §6, §2, §3, §4, §5

[9] = tested on: M2 (CD45+CD11c+CD206+) macrophages; assay: Flow cytometry of M2 macrophages in 4T1 mammary carcinoma; format: in vivo, mouse
Experimental: as §1, §2, §3, §4, §5

[10] = tested on: CXCR4; assay: Flow cytometry of CXCR4 expression in the tumor site; format: in vivo, mouse
Experimental: as §6, §2, §3, §7, §4
(§8) The following directly conjugated rat anti-mouse mAbs were used for the FACS staining: CD45-PerCP, CD11b-APC, CCR4-PE, CCR5-PE, CCR7-PE, CCR1O-PE and CXCR4-PE were from BD Biosciences. CD49b-APC was from Biolegend. CD226-PE, CD4-FITC, CD25-APC, CD8a-FITC, PD-1-PE, CTLA-4-PE, PDL1-PE-Cy7, PDL2-FITC and CD47-APC were from eBiosciences. CD11c-FITC and GR1-FITC were from Milteny. CD206 was from Santa Cruz. We used anti-mouse Foxp3 staining set PE (eBioscience) for Foxp3 staining.

[11] = tested on: PD-L1; assay: Flow cytometry of PD-L1 expression in tumor cell populations; format: in vivo, mouse
Experimental: as §6, §2, §3, §7, §4, §8

[12] = in vivo; cited from earlier work
[13] = tested on: cells; settings: cited from earlier work
[14] = tested on: PD-1; assay: Flow cytometry of PD-1 expressing CD45+ cells in B16F10 melanoma; format: in vivo, mouse
Experimental: as §6, §2, §3, §4, §5

[15] = tested on: NK cells; assay: Flow cytometry of NK cells in B16F10Luc tumors, C57BL6 mice; format: in vivo, mouse
Experimental: as §6, §2, §3, §4, §8

[16] = tested on: CD45+CD4+CD25+FoxP3+ Treg cells; assay: Flow cytometry of Treg cells in B16F10Luc tumors; format: in vivo, mouse
Experimental: as §6, §2, §3, §4, §5

[17] = tested on: PD-L2; assay: Flow cytometry of PD-L2 expression in tumor cell populations; format: in vivo, mouse; settings: for reduction of the expression of PD-L2: compared with PD-L1
Experimental: as §6, §2, §3, §7, §4, §8

[18] = tested on: CD45+CD11b+Gr1+ MDSCs; assay: Flow cytometry of MDSCs in B16F10 Luc melanoma; format: in vivo, mouse
Experimental: as §6, §2, §3, §4, §5

[19] = tested on: CTLA-4; assay: Flow cytometry of CTLA-4 expression among CD45+ cells; format: in vivo, mouse
Experimental: as §2, §3, §4
as §8, with “We used anti-mouse Foxp3 staining set PE (eBioscience) for Foxp3 staining.” left out

[20] = tested on: CCR10; assay: Flow cytometry of CCR10 expression in the tumor site; format: in vivo, mouse
Experimental: as §6, §2, §3, §7, §4, §8

[21] = tested on: CX3CR1; assay: Flow cytometry of CX3CR1 expression in the tumor site; format: in vivo, mouse; settings: endothelial enriched cell population
Experimental: as §6, §2, §3, §7, §4

[22] = tested on: B16F10 melanoma cells; assay: Tumor growth of B16F10 melanoma in C57BL6 mice under ITPP treatment; format: in vivo, mouse; settings: day 23
Experimental: (§9) Murine B16F10 cells were implanted in C57BL6 or on Rj:NMRI-nu nude mice leg subcutaneously by injecting a plug of 10^5 cells in 100 μl Matrigel (BD Biosciences).
as §6, §2

[23] = tested on: Treg cells; assay: Flow cytometry of Treg cells in 4T1 mammary carcinoma; format: in vivo, mouse; settings: 4T1 mammary carcinoma bearing BalbC mice
Experimental: as §1, §2, §3, §4, §5

[24] = tested on: NK cells; assay: Flow cytometry of NK cells in B16F10Luc tumors, NRj:NMRI nude mice; format: in vivo, mouse; settings: B16F10-Luc tumors in nude mice
Experimental: as §6, §2, §3, §4, §5

[25] = tested on: M2 (CD45+CD11c+CD206+) macrophages; assay: Flow cytometry of M2 macrophages in B16F10Luc melanoma; format: in vivo, mouse; settings: melanoma tumor site
Experimental: as §6, §2, §3, §4, §5

[26] = tested on: 4T1 mammary carcinoma; assay: Tumor growth of 4T1 mammary carcinoma in BALB/c-by mice under ITPP treatment; format: in vivo, mouse
Experimental: as §1, §2

[27] = tested on: CCR7; assay: Flow cytometry of CCR7 expression in the tumor site; format: in vivo, mouse; settings: tumor cells
Experimental: as §6, §2, §3, §7
as §4, with “needed. […]” for “needed.”

[28] = tested on: B16F10 melanoma cells; assay: Tumor growth of B16F10 melanoma in Rj:NMRI-nu nude mice under ITPP treatment; format: in vivo, mouse; settings: ITPP 1.5 g/kg intraperitoneally, day 23, versus controls
Experimental: as §9, §6, §2

[29] = tested on: activated NK cells; assay: Flow cytometry of activated NK cells in 4T1 mammary carcinoma; format: in vivo, mouse; settings: 4T1 cells bearing mice
Experimental: as §1, §2, §3, §4, §5

[30] = CD31+ endothelial cells of the tumor

With `O=P1(O)OC2C3OP(=O)(O)OP(=O)(O)OC3C3OP(=O)(O)OP(=O)(O)OC3C2OP(=O)(O)O1` (centres unmarked) [ITPP, myo-inositol tris pyrophosphate] the “CD45+PD-1+ cells among whole tumor populations” value [1] was “increase; also recorded: enriched”, the “proportion of Th2 cells (CD45+CD4+CCR4+) in the tumor site” value [2] was “decrease; also recorded: reduced” and the “proportion of immune cells (CD45+) in the tumor” value [3] was “higher”. For the same compound, the “numbers of macrophages expressing the M1 (CD45+CD11c+CD206−) phenotype” value [4] was “tendency to increase; also recorded: tended to increase”, the “intensity of CD47 expression” value [5] was “reduced” and the CCR5 expression ([6]; CD45+ population) was “inverse effect”. For the same compound, the CCR5 expression ([6]; tumor cells) was “radical effect”, the “NK cell (CD49b+) infiltrate in the tumor” value [7] was “infiltrated the tumor mass” and the “proportion of CD31+ endothelial cells” value [8] was “higher; also recorded: increased”. The “proportion of M2 (CD45+CD11c+CD206+) macrophages” value [9] was “reduced; also recorded: decreased”, the CXCR4 expression ([10]; CD45+ cells) was “not affected” and the CXCR4 expression ([10]; endothelial enriched cell population) was “not affected”. For the same compound, the “cells expressing CXCR4” value ([10]; tumor cells) was “strongly reduced”, the “expression of PD-L1” value [11, 30] was “considerably reduced and less” and the “expression of PD-L1” value ([11]; immune CD45+ cell population) was “strongly reduced”. The “expression of PD-L1” value ([11]; separated CD45− cells) was “clear reduction”, the “expression of PD-L1” value ([11]; whole tumor cell populations) was “clear reduction” and the “toxicity for the animals” value [12] was “not to be toxic”. For the same compound, the “toxicity for cells treated separately” value [13] was “not to be toxic”, the “CD45+PD-1+ cells among whole tumor populations” value [14] was “increase; also recorded: enriched” and the “proportions of NK cells found in the tumor before and after ITPP treatments (R)” value ([15]; B16F10-Luc tumors in normal C57Bl6 mice) was 2.25. The “number of NK cells in the tumor site” value ([15]; CD45+CD49+ NK cells, B16F10Luc tumors, C57BL6 mice) was “doubled”, the “numbers of activated (CD45+CD49b+CD226+) NK cells” value ([15]; melanoma bearing mice, after ITPP treatment) was “increase” and the “proportions of CD45+CD4+CD25+FoxP3+ Treg cells” value [16] was “very significantly decreased; also recorded: reduced”. For the same compound, the “expression of PD-L2” value [17, 30] was “reduced and less”, the “expression of PD-L2” value ([17]; immune CD45+ cell population) was “strongly reduced” and the “reduction of the expression of PD-L2” value ([17]; separated CD45− cells) was “to a lesser extent”. For the same compound, the “reduction of the expression of PD-L2” value ([17]; whole tumor cell populations) was “to a lesser extent”, the “MDSCs proportion in the tumor” value [18] was “reduced” and the CTLA-4 expression [19] was “No significant change”. For the same compound, the “cells expressing CCR10” value ([20]; B16F10 cells) was “reduced”, the “increase of cells expressing CCR10 (R)” value ([20]; endothelial cells enriched population) was 2 and the “increase of cells expressing CCR10 (R)” value ([20]; immune cells (CD45+)) was 10. For the same compound, the “expression of the fractalkine receptor CX3CR1” value [21] was “induced expression”, the tumor size ([22]; B16F10 melanoma in normal C57BL6 mice, ITPP 1.5 g/kg intraperitoneally, versus controls) was “reduction of the tumor size; also recorded: half size of the controls” and the tumor growth ([22]; melanoma cells, treatments stopped on day 21) was 50%. The Treg cell numbers [23] was “reducing effect; also recorded: reduced”, the “proportions of NK cells found in the tumor before and after ITPP treatments (R)” value [24] was 2.25 and the “proportion of M2 (CD45+CD11c+CD206+) macrophages” value [25] was “reduced; also recorded: decreased”. For the same compound, the mammary carcinoma reduction ([26]; 4T1, day 31, after arrest of treatment on day 21) was “up to 50%”, the tumor size ([26]; 4T1 mammary carcinoma in BALB/c-by mice, ITPP 1.5 g/kg intraperitoneally, day 31, versus controls) was “reduction of the tumor size; also recorded: half size of the controls” and the CCR7 expression [27] was “total reduction”. For the same compound, the tumor size [28] was “reduction of the tumor size; also recorded: half size of the controls” and the “recruitment of activated NK cells” value [29] was “higher recruitment”.
